In patent US9663523B2, “BET protein-inhibiting 5-aryltriazoleazepines” (BAYER PHARMA AKTIENGESELLSCHAFT, priority 2012, dated 2017):

How the values were obtained:
[1] = target: BRD4(1) (amino acids 44-168) (Homo sapiens (Human), UniProt O60885); test: BRD4 binding strength, TR-FRET (HTRF) assay of BRD4(1) / acetylated histone H4 peptide interaction; settings: inhibition of BRD4(1)/Ac-H4 peptide interaction
From the text: To assess the BRD4 binding strength of the compounds according to the invention, the ability thereof to inhibit the interaction between BRD4 and acetylated histone H4 in a dose-dependent manner was quantified. For this purpose, a time-resolved fluorescence resonance energy transfer (TR-FRET) assay was used, which measures the binding between N-terminally His6-tagged BRD4(1) (amino acids 44-168) and a synthetic acetylated histone H4 (Ac-H4) peptide with sequence […]-biotin. The recombinant BRD4 protein produced in-house according to Filippakopoulos et al., Cell, 2012, 149:214-231 was expressed in E. coli and purified by means of (Ni-NTA) affinity and (Sephadex G-75) size exclusion chromatography. The Ac-H4 peptide can be purchased, for example, from Biosyntan (Berlin, Germany). […] For this purpose, 100-fold concentrated solutions in DMSO were prepared by serial dilutions (1:3.4) of a 2 mM stock solution into a clear, 384-well microtitre plate (Greiner Bio-One, Frickenhausen, Germany). From this, 50 nl were transferred into a black test plate (Greiner Bio-One, Frickenhausen, Germany). […] This was followed by a 10-minute incubation step at 22° C. for the pre-equilibration of putative complexes between BRD4 and the substances. Subsequently, 3 μl of a solution of 1.67 times the concentration (in assay buffer) consisting of Ac-H4 peptide (83.5 nM) and TR-FRET detection reagents [16.7 nM anti-6His-XL665 and 3.34 nM streptavidin cryptate (both from Cisbio Bioassays, Codolet, France), and 668 mM potassium fluoride (KF)] were added. The mixture was then incubated in the dark at 22° C. for one hour and then at 4° C. overnight. The formation of BRD4/Ac-H4 complexes was determined by the measurement of the resonance energy transfer from the streptavidin-Eu cryptate to the anti-6His-XL665 antibody present in the reaction. […] The ratio of the emissions at 665 nm and at 622 nm was taken as an indicator of the amount of BRD4/Ac-H4 complexes formed.

MOLM-13 cells = test: Cell proliferation (alamarBlue), MOLM-13; type: cell-based; settings: Homo sapiens, acute myeloid leukaemia cell line, 96 hours incubation
Procedure: (§1) The ability of the compounds according to the invention to inhibit the proliferation of various cell lines was determined.
(§2) Cell viability was determined by means of the alamarBlue® reagent (Invitrogen). The cells were sown at different densities (MOLM-13, LAPC-4, MOLP-8 and MDA-MB-231: 4000 cells/well; B16F10: 400 cells/well) in 100 μl of growth medium on 96-well microtitre plates. After overnight incubation at 37° C., the fluorescence values (CI values) were determined. The plates were then treated with various substance dilutions and incubated at 37° C. for 96 hours (MOLM-13, MDA-MB-231 and B16F10 cells), 120 hours (MOLP-8 cells) or 168 hours (LAPC-4 cells). Subsequently, the fluorescence values were determined (CO values). For the data analysis, the CI values were subtracted from the CO values and the results were compared between cells which had been treated with various dilutions of the substance or only with buffer solution.
(§3) The compounds according to the invention were tested in the cell lines in Table 2, which represent the indications specified by way of example:
(§4) The indications corresponding to the different cell lines can be found in Table 2.

LAPC-4 cells = test: Cell proliferation (alamarBlue), LAPC-4; type: cell-based; settings: Homo sapiens, LAPC4; prostate carcinoma (androgen receptor-positive) cell line, 168 hours incubation
Procedure: as §1
as §2, with “values).” for “values). For the data analysis, the CI values were subtracted from the CO values and the results were compared between cells which had been treated with various dilutions of the substance or only with buffer solution.”
as §3, §4

B16F10 cells = test: Cell proliferation (alamarBlue), B16F10; type: cell-based; settings: Mus musculus, B16-F10; melanoma cell line, 96 hours incubation
Procedure: as §1, §2, §3, §4

| Structure (SMILES) | IC50 [1] [nM] | IC50 (MOLM-13 cells) [nM] | IC50 (LAPC-4 cells) [nM] | IC50 (B16F10 cells) [nM] |
| --- | --- | --- | --- | --- |
| CCOC(=O)CC1C=C(c2ccc(Cl)cc2)c2ccccc2-n2c(C)nnc21 (stereo in doubt) [Example 2, ethyl (−)-(4R)-[6-(4-chlorophenyl)-1-methyl-4H-[1,2,4]triazolo[4,3-a][1]benzazepin-4-yl]acetate] | 30 | 120 | 80 | 100 |
| Cc1nnc2n1-c1ccccc1C(c1ccc(Cl)cc1)=CC2CC(=O)N1C2CCC1CC2 (stereo in doubt) [Example 6, (−)-1 (7-azabicyclo[2.2.1]hept-7-yl)-2-[(4R)-6-(4-chlorophenyl)-1-methyl-4H-[1,2,4]triazolo[4,3-a][1]benzazepin-4-yl]ethanone] | 600 | 670 | 1060 | 1020 |
| Cc1nnc2n1-c1ccccc1C(c1ccc(Cl)cc1)=CC2CC(=O)OC(C)(C)C (stereo in doubt) [Example 9, tert-butyl (−)-[(4R)-6-(4-chlorophenyl)-1-methyl-4H-[1,2,4]triazolo[4,3-a][1]benzazepin-4-yl]acetate] | – | 430 | 310 | 430 |
| Cc1nnc2n1-c1ccccc1C(c1cccc(Cl)c1)=CC2CC(=O)N1CC2(COC2)C1 (stereo in doubt) [Example 11, (−)-2-[(4R)-6-(3-chlorophenyl)-1-methyl-4H-[1,2,4]triazolo[4,3-a][1]benzazepin-4-yl]-1-(2-oxa-6-azaspiro[3.3]hept-6-yl)ethanone] | 300 | 4190 | 7890 | 9470 |
| Cc1nnc2n1-c1ccccc1C(c1ccc(Cl)cc1)=CC2Cc1nnc(-c2cccnc2)o1 (stereo in doubt) [Example 45, (−)-(4R)-6-(4-chlorophenyl)-1-methyl-4-{[5-(pyridin-3-yl)-1,3,4-oxadiazol-2-yl]methyl}-4H-[1,2,4]triazolo[4,3-a][1]benzazepine] | 50 | 100 | – | 60 |
| CCOC(=O)CC1C=C(c2ccc(Cl)cc2)c2ccccc2-n2c(C)nnc21 (centres unmarked) [Example 1, ethyl [6-(4-chlorophenyl)-1-methyl-4H-[1,2,4]triazolo[4,3-a][1]benzazepin-4-yl]acetate] | 180 | 330 | 260 | 300 |
| Cc1nnc2n1-c1ccccc1C(c1ccc(Cl)cc1)=CC2CC(=O)N1CC2(COC2)C1 (centres unmarked) [Example 3, 2-[6-(4-chlorophenyl)-1-methyl-4H-[1,2,4]triazolo[4,3-a][1]benzazepin-4-yl]-1-(2-oxa-6-azaspiro[3.3]hept-6-yl)ethanone] | 220 | 630 | 470 | 740 |
| Cc1nnc2n1-c1ccccc1C(c1ccc(Cl)cc1)=CC2CC(=O)N1C2CCC1CC2 (centres unmarked) [Example 5, 1-(7-azabicyclo[2.2.1]hept-7-yl)-2-[6-(4-chlorophenyl)-1-methyl-4H-[1,2,4]triazolo[4,3-a][1]benzazepin-4-yl]ethanone] | 1400 | 1120 | 620 | 870 |
| CCOC(=O)CC1C=C(c2cccc(Cl)c2)c2ccccc2-n2c(C)nnc21 (centres unmarked) [Example 7, ethyl [6-(3-chlorophenyl)-1-methyl-4H-[1,2,4]triazolo[4,3-a][1]benzazepin-4-yl]acetate] | 230 | 720 | 750 | 780 |
| Cc1noc(CC2C=C(c3ccc(Cl)cc3)c3ccccc3-n3c(C)nnc32)n1 (centres unmarked) [Example 34, 6-(4-chlorophenyl)-1-methyl-4-[(3-methyl-1,2,4-oxadiazol-5-yl)methyl]-4H-[1,2,4]triazolo[4,3-a][1]benzazepine] | 90 | 360 | – | – |
| Cc1nnc(CC2C=C(c3ccc(Cl)cc3)c3ccccc3-n3c(C)nnc32)o1 (centres unmarked) [Example 39, 6-(4-chlorophenyl)-1-methyl-4-[(5-methyl-1,3,4-oxadiazol-2-yl)methyl]-4H-[1,2,4]triazolo[4,3-a][1]benzazepine] | 40 | 320 | – | – |
